Experimental data: US20140113964A1, “METHOD OF PREVENTING AND TREATING ALLERGIC AIRWAY DISEASES VIA INTRANASAL GABEXATE MESILATE” (priority 2012, published 2014)
Where a SMILES comes first, the peptide text is derived from it. [ ]: non-standard residue; d: D form. The star is where a group is joined. Sta = CC(C)C[C@H](N)[C@@H](O)CC(=O)O; Isovaleryl = CC(C)CC(=O)*

Columns and labels:
[1] = tested on: protease activity of CraA; assay: azocasein assay of the protease activity of CraA with protease inhibitors; format: biochemical, American cockroach; conditions: azocasein substrate, 37° C., 30 mins, absorbance at 440 nm; FIG. 1
Method: In brief, azocasein was used as a substrate to measure the protease activity of CraA. Twenty μL of CraA was added into 80 μL azocasein solution (0.5% (w/v), lysed in 100 mM phosphate buffer) and incubated in 37° C. water bath for 30 mins. Afterwards, 20 μL of 10% trichloroacetic acid was added to stop the reaction. Further, the mixture was centrifuged with 6000 g for 10 mins. Consequently, 50 μL of supernatant was mixed with 50 μL of NaOH (0.2N), and the absorbance was measure at 440 nm. Moreover, various protease inhibitors were applied to inhibit the protease activity of CraA, for instance, PMSF (serine protease), aprotinin (serine protease), pepstatin (aspartic acid protease), E-64 (cysteine protease) and EDTA (metalloprotease), so as to confirm the serine protease activity of CraA.
With reference to FIG. 1 for a schematic view of inhibition of protease activity of CraA in accordance with an embodiment of the present invention, the protease activity inhibition was shown after treatment of different kinds of […].

Beas2B cells [2] = assay: CraA-induced dissociation of Beas2B cells, bright field microscope; format: cell-based, Human; conditions: 36, 75, 150 or 300 μg/mL gabexate mesilate for 30 mins, then 5 μg/mL CraA; FIG. 6
Method: With reference to FIG. 2 is a schematic view of Beas2B cells treated with various doses of CraA in accordance with an embodiment of the present invention, 3×10^5 Beas2B cells were seeded in a 6-well plate and treated with 0, 5, 10, 20, 30 and 40 μg/mL of CraA, respectively. Afterwards, the cells were observed by the bright field microscope.

murine asthma model = conditions: intra-peritoneal injection; cited from earlier work
Beas2B cells [3] = assay: cell viability of Beas2B cells, trypan blue staining and counting; format: cell-based, Human
Method: With reference to FIG. 5 for a schematic view of cell viability of Beas2B cells treated with gabexate mesilate (GM) in accordance with an embodiment of the present invention, 3×10^5 Beas2B cells were seeded in a 3.5-cm dish with subsequently starvation for 16 hrs. After treating the cells with gabexate mesilate of various concentrations for 24 hrs, the cells were stained with trypan blue and counted the numbers of total cells, dead cells and survived cells so as to convert the numbers into a viability of the cells.
Referring to FIG. 5, the IC50 of the cells to gabexate mesilate is 600 μg/mL, that is, the cell viability with respect to gabexate mesilate at concentration of 600 μg/mL is 50%. […] Accordingly, the pharmaceutical effective amount of the composition comprising gabexate mesilate may be between 1-600 μg/mL, preferably between 10-300 μg/mL.

IL-8 and MCP-1 proteins = assay: IL-8 and MCP-1 protein levels in Beas2B cells treated with CraA; format: cell-based, Human; conditions: pre-treatment 30 mins, then 5 μg/mL CraA, time courses; FIG. 8
Method: With reference to FIGS. 6-8 for a schematic view of protection effects of gabexate mesilate (GM) on Beas2B cells treated with CraA, a schematic view of chemokines detected by RT-PCR in Beas2B cells treated with CraA and gabexate mesilate and a quantification result of IL-8 and MCP-1 proteins in Beas2B cells treated with CraA and gabexate mesilate in accordance with an embodiment of the present invention, 3×10^5 Beas2B cells were seeded in a 6-well plate and subsequently treated with gabexate mesilate for 30 mins. Afterwards, the cells were further treated with 5 μg/mL of CraA. Consequently, the cells were either observed by bright field microscope and analyzed the gene expression and the protein level of the cytokines, such as IL-8, MCP-1, GM-CSF and CCL20, as mentioned above.

[4] = tested on: IL-8, MCP-1, GM-CSF and CCL20 genes; assay: RT-PCR of chemokine genes (IL-8, MCP-1, GM-CSF, CCL20) in Beas2B cells treated with CraA; format: cell-based, Human; conditions: pre-treatment 30 mins, then 5 μg/mL CraA, increasing doses; FIG. 7
Method: Referring to FIG. 4, the mRNA levels of various cytokines in response to treatment of CraA was measured by RT-PCR. To be brief, 3×10^5 Beas2B cells were seeded in a 6-well plate and treated with 5 μg/mL of CraA for 1, 2, 3, 4, 5, 16 and 24 hrs, respectively. After the treatment, the cells were harvested by TRIzol (Invitrogen), and RNA of the cells was extracted. The extracted RNA was reverse-transcribed into cDNA by SuperScript polymerase (Invitrogen) according to the manufacturer's instruction. Moreover, IL-8, MCP-1, GM-CSF and CCL20 genes were amplified by RT-PCR and analyzed by 2% agarose gel. The expression levels of the above mentioned genes were normalized with the expression of β-actin.

With `CC(C)C[C@H](NC(=O)[C@H]1O[C@@H]1C(=O)O)C(=O)NCCCCN=C(N)N` [E-64] the “inhibition of the protease activity of CraA” value (shortened to “inhibition”) [1] was “not significantly inhibited”.

With `O=C(O)CN(CCN(CC(=O)O)CC(=O)O)CC(=O)O` [EDTA] the “inhibition” value [1] was “not significantly inhibited”.

With `O=S(=O)(F)Cc1ccccc1` [PMSF] the “inhibition” value [1] was “obviously inhibited”.

For `CCOC(=O)c1ccc(OC(=O)CCCCCN=C(N)N)cc1.CS(=O)(=O)O` [gabexate mesilate], the “dissociation of Beas2B cells treated with CraA” value (Beas2B cells [2]) is listed as “reverse the dissociation of the cells”, the “allergen-induced airway inflammation and eosinophilia” value (murine asthma model) is listed as “attenuates allergen-induced airway inflammation and eosinophilia” and the survived cells (Beas2B cells [3]; 1200 μg/mL, 24 hrs) is listed as “no survived cells”. The “IC50 of the cells to gabexate mesilate (cell viability)” value (Beas2B cells [3]; Beas2B cells, 24 hrs treatment, trypan blue, FIG. 5) was 600 µg/mL, the “protein levels of IL-8 and MCP-1” value (IL-8 and MCP-1 proteins) was “significantly decreased” and the “expression of IL-8, MCP-1, GM-CSF and CCL20 genes induced by CraA” value [4] was “obviously decreases the gene expression induced by CraA”.

For `CC(C)CC(=O)N[C@H](C(=O)N[C@H](C(=O)N[C@@H](CC(C)C)[C@@H](O)CC(=O)N[C@@H](C)C(=O)N[C@@H](CC(C)C)[C@@H](O)CC(=O)O)C(C)C)C(C)C` [pepstatin] (Isovaleryl-VV[Sta]A[Sta]-OH), the “inhibition” value [1] was “not significantly inhibited”.

In the case of aprotinin, the “inhibition” value [1] is reported as “obviously inhibited”.
